Key:
p70α^S6k (p70α-I) [1] = assay: S6 kinase assay (40S subunits) on immunoprecipitates of transfected HEK293 cells treated with rapamycin or wortmannin; assay type: cell-based, rat; settings: 30 min, HEK293 cells in DMEM with 10% FCS
Description: (§1) FIG. 6A-6B. Effects of rapamycin and wortmannin on p70β^S6k and p70α^S6k. Effects of rapamycin and wortmannin on S6 phosphorylation activity of p70α-I or p70β-II. HEK293 cells were transfected with mock cDNA or plasmids containing FLAG-tagged p70β1 or p70β2 isoforms. After 48 h of transfection, cells were treated with vehicle or indicated concentrations of rapamycin or wortmannin for 30 min. After immunoprecipitation with anti-FLAG antibodies, the kinase activity was determined by a p70 S6 kinase assay using 40S subunits as substrates. The proteins of the reaction mixture were separated by SDS-PAGE, transferred onto PVDF membrane and analyzed by autoradiography (FIGS. 6A and 6B, upper panels). Subsequent immunoblotting with anti-FLAG antibody confirmed the expression of p70α-I (FIG. 6A, lower panel) and p70β-II (FIG. 6B, lower panel). A representative of three experiments is shown. ^32P incorporation into S6 was quantified by PhosphorImager and is expressed in arbitrary units (PI units).
Materials and Methods. Restriction enzymes and DNA modification enzymes were obtained from standard commercial sources and used according to manufacturer's recommendations. Oligonucleotides which were used for sequencing of p70β^S6k and various PCR fragments were synthesized by Genosys or Japan Bioservice, Inc. The pcDNA1 and pcDNA3 mammalian expression vectors were from Invitrogen. […]

p70β^S6k (p70β-II) = assay: as above; assay type: cell-based, human; settings: 30 min, HEK293 cells in DMEM with 10% FCS
Description: as §1
Materials and Methods. Treatment of transfected cells with rapamycin or wortmannin was performed as follows: 48 h after transfection, the cells were treated with various concentrations of rapamycin or wortmannin for 30 min.
Results. […] Thus, the effects of both inhibitors on p70β^S6k activity were examined. […]

[2] = system: p70β^S6k (p70β-II isoform); assay: Stimulation of S6 kinase activity in transfected CHO-IR cells; assay type: cell-based, human; settings: serum-starved CHO-IR cells
Description: (§2) FIG. 5A. CHO-IR cells were transfected with mock (lane 1) or plasmids containing cDNAs of FLAG-tagged p70α-I (lanes 2 and 3) or FLAG-tagged p70β-II (lanes 4 to 7). After serum starvation for 16 hrs, cells were treated with the vehicle (lanes 2 and 4), 10^−7 M insulin for 10 min (lanes 3 and 5), 15% serum for 10 min (lane 6) or 500 nM TPA for 30 min (lane 7). After cell lysis and subsequent immunoprecipitation with anti-FLAG antibodies, immunoprecipitates were subjected to a p70 S6 kinase assay using 40S subunits as substrates. The reaction mixture was separated by SDS-PAGE, transferred onto PVDF membrane. The membrane was analyzed by autoradiography (upper panel) and then immunoblotted with anti-FLAG antibodies (lower panel). A representative of three experiments is shown. ^32P incorporation into S6 was quantified by Molecular Dynamics. PhosphorImager™ and is expressed in arbitrary units (PI units).
(§3) Materials and Methods. HEK293 cells or CHO-IR cells were transfected with plasmids containing p70α^S6k and p70β^S6k sequences using lipofectAMINE under conditions recommended by the manufacturer (Gibco-BRL). Two days later, transfected cells were frozen in liquid nitrogen and stored until lysis. […]
(§4) Results. […] The activation of p70β^S6k (p70β-II isoform) by insulin was analyzed in CHO-IR cells, which stably over expresses the insulin receptor. […]

p70α^S6k (p70α-I) [3] = assay: as above; assay type: cell-based, rat; settings: 10^-7 M insulin for 10 min, serum-starved CHO-IR cells
Description: as §2, §3, §4

40S ribosomal subunit = assay: In vitro S6 kinase assay of activated kinase variants expressed in HEK293 cells; assay type: biochemical; settings: versus wild type p70α^S6k
Description: Materials and Method. Activated variants of p70β^S6k and p70α^S6k were made by site-directed mutagenesis. Oligonucleotide primers, specific to the site to be mutated and complimentary to opposite strands of p70β^S6k and p70α^S6k sequences were generated as recommended by manufacturer (Stratagene). Site directed mutagenesis was carried out using pcDNA3/Glu-tag-p70β^S6k and pcDNA3/Glu-tag-p70α^S6k expression vector/plasmids as templates, according to the recommended protocol (Stratagene). All mutations were verified by DNA sequencing. Expression of mutated forms of both kinases was analyzed by immunobloting with anti-Glu-tag antibodies. The activity of normal and mutated forms of both kinases was measured by in vitro S6 kinase assay. 40S ribosomal subunit was used as a substrate in this reaction.
We have generated an activated form of p70β^S6k by substituting putative phosphorylation site Thr 401 with Aspartic acid (Asp) (“p70β^S6k (T401D)”) as shown in FIG. 10.

p70α^S6k = assay: Stimulation of S6 kinase activity by PDGF in transfected PAE-PDGF-R cells; assay type: cell-based, rat; settings: 20 ng/ml PDGF BB for 20 min, serum-starved PAE-PDGF-R cells
Description: (§5) FIG. 5B. Stimulation of the p70α^S6k and p70β^S6k activity towards ribosomal S6 protein by PDGF in PAE-PDGF-R cells. PAE-PDGF-R cells were transfected with EE-tagged p70α^S6k and p70β^S6k plasmids using lipofectAMINE. After 24 hr, transfected cells were serum-starved for 16 hr and stimulated with 20 ng/ml PDGF BB (Calbiochem) for 20 min. Control cells were treated with the vehicle under the same conditions. After immunoprecipitation with anti-EE antibodies, an in vitro kinase reaction was carried out in the presence of 40S subunits, containing the S6 protein. Reaction mixtures were separated by SDS-PAGE and incorporation of ^32P into S6 protein was measured by PhosphoImager.
(§6) Materials and Methods. HEK293 cells or CHO-IR cells were transfected with plasmids containing p70α^S6k and p70β^S6k sequences using lipofectAMINE under conditions recommended by the manufacturer (Gibco-BRL). Two days later, transfected cells were frozen in liquid nitrogen and stored until lysis. After cell extraction, the lysates were subjected to immunoprecipitation and/or immunoblot analysis. If cells were to be stimulated, they were starved in medium without FCS for 16 h and then stimulated with 10^−7 M insulin for 10 min, 15% FCS for 10 min, 500 nM TPA for 30 min or vehicle alone. PAE-PDGF-R cells were transfected with appropriate plasmids using lipofect under conditions recommended by the manufacturer. […]

[4] = system: p70β^S6k (p70β-II isoform); assay: as above; assay type: cell-based, human; settings: 20 ng/ml PDGF BB for 20 min, serum-starved PAE-PDGF-R cells
Description: as §5, §6

Molecule: CO[C@H]1C[C@@H]2CC[C@@H](C)[C@@](O)(O2)C(=O)C(=O)N2CCCC[C@H]2C(=O)O[C@H]([C@H](C)C[C@@H]2CC[C@@H](O)[C@H](OC)C2)CC(=O)[C@H](C)/C=C(\C)[C@@H](O)[C@@H](OC)C(=O)[C@H](C)C[C@H](C)/C=C/C=C/C=C/1C [rapamycin]
- inhibition of the p70α^S6k (p70α^S6k (p70α-I) [1]; 20 nM rapamycin): 92%
- inhibition of p70β^S6k (p70β^S6k (p70β-II); 20 nM rapamycin): 46%

Molecule: CCCCCCCCCCCCCC(=O)O[C@@H]1[C@@H](C)[C@@]2(O)[C@@H](C=C(CO)C[C@]3(O)C(=O)C(C)=C[C@@H]23)[C@@H]2C(C)(C)[C@]12OC(C)=O [TPA]
- stimulation of p70β^S6k phosphorylation of ribosomal protein S6 ([2]; 500 nM TPA for 30 min): stimulated

Molecule: COC[C@H]1OC(=O)c2coc3c2[C@@]1(C)C1=C(C3=O)[C@@H]2CCC(=O)[C@@]2(C)C[C@H]1OC(C)=O [wortmannin]
- inhibition of p70α^S6k activity (p70α^S6k (p70α-I) [1]; 100 nM wortmannin): 86%
- inhibition of p70β^S6k activity (p70β^S6k (p70β-II); 100 nM wortmannin): 62%

Molecule: insulin: hormone used to stimulate CHO-IR cells
- induction of p70β^S6k activity towards ribosomal S6 protein ([2]; 10^-7 M insulin for 10 min): 2.8 fold
- activation of p70α^S6k activity (p70α^S6k (p70α-I) [3]): 3.5 fold

Molecule: p70α^S6k (T412D): activated version of p70α^S6k made by site-directed mutagenesis
- S6 kinase activation compared with wild type kinase (40S ribosomal subunit): 18 fold

B1: PDGF: PDGF BB growth factor purchased from Calbiochem (protein, UniProt P01127 82-190, looked up)
Platelet-derived growth …: SLGSLTIAEPAMIAECKTRTEVFEISRRLIDRTNANFLVWPPCVEVQRCSGCCNNRNVQCRPTQVQLRPVQVRKIEIVRKKPIFKKATVTLEDHLACKCETVAAARPVT
modifications: Platelet-derived growth factor subunit B
notes: PDGF BB growth factor purchased from Calbiochem
- activation of p70α^S6k (p70α^S6k): 3.4 fold
- activation of p70β^S6k [4]: 30 fold

Source: US7998718B2, “Identification and functional characterization of a novel ribosomal S6 protein kinase” (Ludwig Institute for Cancer Research Ltd., priority 1998, dated 2011)
